The target in the assay is Tyrosine-protein kinase JAK2 (Homo sapiens, UniProt O60674). In words: Enzymatic Activity Assay. The protocol:
A testing platform for kinase activity of JAK2 (wild type and V617F mutant type) was established based on Homogeneous Time-Resolved Fluorescence (HTRF) assay, and the activities of the compounds were tested using the platform. The compounds were subjected to three-fold gradient dilutions with 100% DMSO with a starting concentration of 1 mM (11 dilutions in total). 4 μL of each dilution was added to 96 μL of reaction buffer (50 mM HEPES, pH 7.4, 10 mM MgCl2, 1 mM EGTA, 0.01% Tween-20, 0.005% BAS, 2 mM DTT) and mixed homogeneously. […] The mixture was mixed homogeneously by centrifugation. […] The plate was incubated in the incubator for 1 hr, and then the fluorescence values were read on Envision (available from PerkinElmer). […] The enzymatic activity was representd by a ratio of the two readout at the two emission wavelengths.

Chain of Tyrosine-protein kinase JAK2 (O60674 whole entry): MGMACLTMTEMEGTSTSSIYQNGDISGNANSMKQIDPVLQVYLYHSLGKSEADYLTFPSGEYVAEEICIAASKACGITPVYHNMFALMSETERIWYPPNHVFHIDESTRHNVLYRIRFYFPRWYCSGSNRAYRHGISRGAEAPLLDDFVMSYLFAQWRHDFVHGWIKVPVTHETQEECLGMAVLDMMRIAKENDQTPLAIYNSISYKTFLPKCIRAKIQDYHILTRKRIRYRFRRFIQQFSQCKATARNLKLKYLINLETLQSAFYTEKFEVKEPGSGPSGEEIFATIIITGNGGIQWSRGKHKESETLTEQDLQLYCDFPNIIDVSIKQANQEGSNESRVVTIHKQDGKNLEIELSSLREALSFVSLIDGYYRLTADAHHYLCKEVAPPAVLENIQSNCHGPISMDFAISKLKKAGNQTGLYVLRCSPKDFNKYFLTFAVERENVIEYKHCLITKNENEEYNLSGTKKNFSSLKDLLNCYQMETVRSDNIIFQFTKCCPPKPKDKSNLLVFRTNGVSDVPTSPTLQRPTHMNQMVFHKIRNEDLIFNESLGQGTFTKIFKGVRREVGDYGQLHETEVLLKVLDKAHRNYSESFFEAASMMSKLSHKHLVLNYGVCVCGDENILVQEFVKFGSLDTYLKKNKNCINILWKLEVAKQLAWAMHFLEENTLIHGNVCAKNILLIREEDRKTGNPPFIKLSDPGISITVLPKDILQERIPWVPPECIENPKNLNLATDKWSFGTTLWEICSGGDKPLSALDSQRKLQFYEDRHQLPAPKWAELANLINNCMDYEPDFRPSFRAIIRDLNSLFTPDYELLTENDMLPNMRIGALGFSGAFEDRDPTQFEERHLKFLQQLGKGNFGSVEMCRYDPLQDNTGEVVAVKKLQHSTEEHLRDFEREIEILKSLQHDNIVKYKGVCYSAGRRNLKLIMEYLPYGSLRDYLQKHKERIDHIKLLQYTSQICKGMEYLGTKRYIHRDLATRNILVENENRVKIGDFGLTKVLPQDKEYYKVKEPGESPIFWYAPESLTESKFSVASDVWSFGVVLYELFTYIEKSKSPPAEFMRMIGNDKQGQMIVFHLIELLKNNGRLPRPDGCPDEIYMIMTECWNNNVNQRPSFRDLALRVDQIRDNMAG

The IC50 is the concentration needed to halve the response being measured. Lower therefore signals inhibition by little substance. For `NC(=O)CC(C1CCCC1)n1cc(-c2ncnc3[nH]ccc23)c(N)n1` (configuration not stated) [US10561657, Example 2], the IC50 is under 100 nM.

For `CS(=O)(=O)Nc1nn(C(CC#N)C2CCCC2)cc1-c1ncnc2[nH]ccc12` (configuration not stated) [US10561657, Example 10], the half-inhibitory concentration (IC50) was under 20 nM.

Source of the values: BindingDB's records for patent US10561657 (Centaurus Biophrama, 2020).
